Assays:
[1] = Liver pharmacokinetics following a single oral dose in CD-1 mice; type: in vivo; details: 2′-Me-2′-F-G TP in liver, single oral dose 10 mg/kg in PEG 200, CD-1 male mice, 4, 12 and 24 hours post dose
Description: A single oral dose of test compound at 10 mg/kg for 104a and 104b in PEG 200 (dose volume 5 mL/kg) is administered to nine CD-1 male mice. Five untreated animals are used for the collection of control plasma and liver. Terminal plasma and liver samples are collected from three animals per time point at 4, 12 and 24 hours post dose. Liver specimens are collected from all animals immediately after the incision. Freezing forceps stored in liquid nitrogen are used to freeze the liver before excision.
Liver samples are analyzed for the active species 2′-methyl-2′-fluoroguanosine triphosphate (2′-Me-2′-F-G TP) by LC-MS/MS. 2′-Me-2′-F-G TP levels are assayed by homogenizing (on ice) a known weight of mouse liver with 4× volume of 0.95 M trichloroacetic acid (TCA). Internal standard solution is added to the homogenate followed by neutralization with 20% ammonium hydroxide solution and addition of 500 μL 1% formic acid. The tissue samples are extracted by weak anion exchange solid phase extraction (SPE). Post extraction, the eluates are evaporated under nitrogen, followed by reconstitution before injection onto the LC-MS/MS system. […] The analyte is detected and quantified by tandem mass spectrometry in positive ion mode on an API4000 equipped with a Turbo Ionspray® interface. […]

HCV genotype 1b replicon = assay: HCV replicon assay (luciferase reporter); type: cell-based; details: Hepatitis C virus, Huh-7-derived Zluc cells, 72 hours incubation
Description: Huh-7-derived cell line (Zluc) that harbors an HCV genotype 1b replicon and a luciferase reporter gene was grown in Dulbecco's Modified Eagle Medium (DMEM) supplemented with 10% fetal bovine serum, 2 mM GlutaMAX, 1% MEM nonessential amino acids, 100 IU/mL penicillin, 100 μg/mL streptomycin, and 0.5 mg/mL Geneticin® (G418). For dose response testing the cells were seeded in 96-well plates at 7.5×10^3 cells per well in a volume of 50 μl, and incubated at 37° C./5% CO2. Drug solutions were made up freshly in Huh-7 media as 2× stocks. Ten additional 5-fold dilutions were prepared from these stocks in DMEM without G418. At least three hours after Zluc cells were seeded, drug treatment was initiated by adding 50 μL of drug dilutions to the plates in duplicate. Final concentrations of drug ranged from 100 μM to 0.0000512 μM. […] After 72 hours of incubation, the inhibition of HCV replication was measured by quantification of photons emitted after mono-oxygenation of 5′-fluoroluciferin to oxyfluoroluciferin by firefly luciferase. […] The plates were shaken gently for 3 min at room temperature and luminescence was measured on a Victor^3 V 1420 multilabel counter (Perkin Elmer) with a 1 second read time using a 700 nm cut-off filter. The EC50 values were calculated from dose response curves from the resulting best-fit equations determined by Microsoft Excel and XLfit 5.2 software. […]

[2] = Cytotoxicity evaluation, CellTiter-Blue cell viability; type: cell-based; details: human, Zluc cells (HCV replicon), CellTiter-Blue Cell Viability Assay
Description: For cytotoxicity evaluation, Zluc cells were treated with compound as described herein, and cell viability was monitored using the CellTiter-Blue Cell Viability Assay (Promega) by adding 20 μL of the assay solution to each well. The plates were then incubated at 37° C./5% CO2 for at least 3 hours. Fluorescence was detected in plates using excitation and emission wavelengths of 531 and 595 nm, respectively, in a Victor^3 V 1420 multilabel counter (Perkin Elmer) and CC50 values were determined using Microsoft Excel and XLfit 5.2 software.

Row | SMILES | Mouse Liver TP AUC0-24 [1] | EC50 (HCV genotype 1b replicon) | CC50 at 72 h [2]
1 | CCOc1nc(N)nc2c1ncn2C1O[C@H](COP(=O)(N[C@H](C)C(=O)OC(C)C)Oc2ccccc2)[C@@H](O)[C@@]1(C)F (stereo partly drawn) [Compound 104a] | +++ (500 < +++ ≦ 2000) | 250 to 1000 nM | > 50000 nM
2 | CCOc1nc(N)nc2c1ncn2C1O[C@H](CO[P@@](=O)(N[C@H](C)C(=O)OC(C)C)Oc2ccccc2)[C@@H](O)[C@@]1(C)F (stereo partly drawn) [Compound 104b] | +++ (500 < +++ ≦ 2000) | 250 to 1000 nM | > 50000 nM

From patent US20160271162A1, “D-ALANINE PHOSPHORAMIDE PRONUCLEOTIDES OF 2'-METHYL 2'-FLURO GUANOSINE NUCLEOSIDE COMPOUNDS FOR THE TREATMENT OF HCV” (IDENIX PHARMACEUTICALS, LLC, priority 2013, published 2016)
